Read-outs that look alike come from different tables or passages of the source.
Legend:
[1] = tested on: CCRF-CEM; assay: NCI60 five-dose screen, Leukemia; format: cell-based; conditions: Homo sapiens, Leukemia, five-dose screen, read-out: GI50
[2] = tested on: HL-60(TB); assay: NCI60 five-dose screen, Leukemia; format: cell-based; conditions: Homo sapiens; HL-60(TB), Leukemia; five-dose screen; read-out: GI50
[3] = tested on: MOLT-4; assay: NCI60 five-dose screen, Leukemia; format: cell-based; conditions: Homo sapiens; MOLT-4, Leukemia; five-dose screen; read-out: GI50
[4] = tested on: A549/ATCC; assay: NCI60 five-dose screen, Non-small Cell Lung Cancer; format: cell-based; conditions: Homo sapiens; A549/ATCC, Non-small Cell Lung Cancer; five-dose screen; read-out: GI50
[5] = tested on: HOP-62; assay: NCI60 five-dose screen, Non-small Cell Lung Cancer; format: cell-based; conditions: Homo sapiens; HOP-62, Non-small Cell Lung Cancer; five-dose screen; read-out: GI50
[6] = tested on: HOP-92; assay: NCI60 five-dose screen, Non-small Cell Lung Cancer; format: cell-based; conditions: Homo sapiens; HOP-92, Non-small Cell Lung Cancer; five-dose screen; read-out: GI50
[7] = tested on: NCI-H23; assay: NCI60 five-dose screen, Non-small Cell Lung Cancer; format: cell-based; conditions: Homo sapiens; NCI-H23, Non-small Cell Lung Cancer; five-dose screen; read-out: GI50
[8] = tested on: NCI-H322M; assay: NCI60 five-dose screen, Non-small Cell Lung Cancer; format: cell-based; conditions: Homo sapiens, Non-small Cell Lung Cancer, five-dose screen, read-out: GI50
[9] = tested on: NCI-H460; assay: NCI60 five-dose screen, Non-small Cell Lung Cancer; format: cell-based; conditions: Homo sapiens; NCI-H460, Non-small Cell Lung Cancer; five-dose screen; read-out: GI50
[10] = tested on: HCC-2998; assay: NCI60 five-dose screen, Colon Cancer; format: cell-based; conditions: Homo sapiens; HCC-2998, Colon Cancer; five-dose screen; read-out: GI50
[11] = tested on: SW-620; assay: NCI60 five-dose screen, Colon Cancer; format: cell-based; conditions: Homo sapiens; SW-620, Colon Cancer; five-dose screen; read-out: GI50
[12] = tested on: MALME-3M; assay: NCI60 five-dose screen, Melanoma; format: cell-based; conditions: Homo sapiens; MALME-3M, Melanoma; five-dose screen; read-out: GI50
[13] = tested on: M14; assay: NCI60 five-dose screen, Melanoma; format: cell-based; conditions: Homo sapiens; M14, Melanoma; five-dose screen; read-out: GI50
[14] = tested on: SK-MEL-5; assay: NCI60 five-dose screen, Melanoma; format: cell-based; conditions: Homo sapiens; SK-MEL-5, Melanoma; five-dose screen; read-out: GI50
[15] = tested on: UACC-257; assay: NCI60 five-dose screen, Melanoma; format: cell-based; conditions: Homo sapiens; UACC-257, Melanoma; five-dose screen; read-out: GI50
[16] = tested on: UACC-62; assay: NCI60 five-dose screen, Melanoma; format: cell-based; conditions: Homo sapiens; UACC-62, Melanoma; five-dose screen; read-out: GI50
[17] = tested on: OVCAR-4; assay: NCI60 five-dose screen, Ovarian Cancer; format: cell-based; conditions: Homo sapiens; OVCAR-4, Ovarian Cancer; five-dose screen; read-out: GI50
[18] = tested on: OVCAR-5; assay: NCI60 five-dose screen, Ovarian Cancer; format: cell-based; conditions: Homo sapiens; OVCAR-5, Ovarian Cancer; five-dose screen; read-out: GI50
[19] = tested on: NCI/ADR-RES; assay: NCI60 five-dose screen, Ovarian Cancer; format: cell-based; conditions: Homo sapiens, Ovarian Cancer, five-dose screen, read-out: GI50
[20] = tested on: ACHN; assay: NCI60 five-dose screen, Renal Cancer; format: cell-based; conditions: Homo sapiens, Renal Cancer, five-dose screen, read-out: GI50
[21] = tested on: CAKI-1; assay: NCI60 five-dose screen, Renal Cancer; format: cell-based; conditions: Homo sapiens; CAKI-1, Renal Cancer; five-dose screen; read-out: GI50
[22] = tested on: MCF7; assay: NCI60 five-dose screen, Breast Cancer; format: cell-based; conditions: Homo sapiens; MCF7, Breast Cancer; five-dose screen; read-out: GI50
[23] = tested on: MDA-MB231ATCC; assay: NCI60 five-dose screen, Breast Cancer; format: cell-based; conditions: Homo sapiens, MDA-MB-231; MDA-MB231ATCC, Breast Cancer; five-dose screen; read-out: GI50
[24] = tested on: 60 human tumor cell lines (NCI60); assay: NCI60 five-dose screen, whole panel and sub-panel means; format: cell-based; conditions: Homo sapiens, read-out: GI50 Mean
[25] = tested on: SR; assay: NCI60 one-dose screen (10 μM), Leukemia; format: cell-based; conditions: Homo sapiens, 10 μM, Leukemia, read-out: Growth percent rate
[26] = tested on: EKVX; assay: NCI60 one-dose screen (10 μM), Non-small Cell Lung Cancer; format: cell-based; conditions: Homo sapiens, 10 μM, Non-small Cell Lung Cancer, read-out: Growth percent rate
[27] = tested on: NCI-H226; assay: as above; format: cell-based; conditions: Homo sapiens; 10 μM; NCI-H226, Non-small Cell Lung Cancer; read-out: Growth percent rate
[28] = tested on: NCI-H23; assay: as above; format: cell-based; conditions: Homo sapiens; 10 μM; NCI-H23, Non-small Cell Lung Cancer; read-out: Growth percent rate
[29] = tested on: HCC-2998; assay: NCI60 one-dose screen (10 μM), Colon Cancer; format: cell-based; conditions: Homo sapiens; 10 μM; HCC-2998, Colon Cancer; read-out: Growth percent rate
[30] = tested on: MDA-MB-435; assay: NCI60 one-dose screen (10 μM), Melanoma; format: cell-based; conditions: Homo sapiens; 10 μM; MDA-MB-435, Melanoma; read-out: Growth percent rate
[31] = tested on: UACC-62; assay: NCI60 one-dose screen (10 μM), Melanoma; format: cell-based; conditions: Homo sapiens; 10 μM; UACC-62, Melanoma; read-out: Growth percent rate
[32] = tested on: OVCAR-4; assay: NCI60 one-dose screen (10 μM), Ovarian Cancer; format: cell-based; conditions: Homo sapiens; 10 μM; OVCAR-4, Ovarian Cancer; read-out: Growth percent rate
[33] = tested on: OVCAR-5; assay: NCI60 one-dose screen (10 μM), Ovarian Cancer; format: cell-based; conditions: Homo sapiens; 10 μM; OVCAR-5, Ovarian Cancer; read-out: Growth percent rate
[34] = tested on: NCI/ADR-RES; assay: NCI60 one-dose screen (10 μM), Ovarian Cancer; format: cell-based; conditions: Homo sapiens, 10 μM, Ovarian Cancer, read-out: Growth percent rate
[35] = tested on: SK-OV-3; assay: NCI60 one-dose screen (10 μM), Ovarian Cancer; format: cell-based; conditions: Homo sapiens; 10 μM; SK-OV-3, Ovarian Cancer; read-out: Growth percent rate
[36] = tested on: CAKI-1; assay: NCI60 one-dose screen (10 μM), Renal Cancer; format: cell-based; conditions: Homo sapiens; 10 μM; CAKI-1, Renal Cancer; read-out: Growth percent rate
[37] = tested on: UO-31; assay: NCI60 one-dose screen (10 μM), Renal Cancer; format: cell-based; conditions: Homo sapiens; 10 μM; UO-31, Renal Cancer; read-out: Growth percent rate
[38] = tested on: PC-3; assay: NCI60 one-dose screen (10 μM), Prostate Cancer; format: cell-based; conditions: Homo sapiens; 10 μM; PC-3, Prostate Cancer; read-out: Growth percent rate
[39] = tested on: MDA-MB-231/ATCC; assay: NCI60 one-dose screen (10 μM), Breast Cancer; format: cell-based, human; conditions: Homo sapiens; 10 μM; MDA-MB-231/ATCC, Breast Cancer; read-out: Growth percent rate
[40] = tested on: BT-549; assay: NCI60 one-dose screen (10 μM), Breast Cancer; format: cell-based; conditions: Homo sapiens; 10 μM; BT-549, Breast Cancer; read-out: Growth percent rate
[41] = tested on: T-47D; assay: NCI60 one-dose screen (10 μM), Breast Cancer; format: cell-based; conditions: Homo sapiens, T47D; 10 μM; T-47D, Breast Cancer; read-out: Growth percent rate

CC[C@]12C=CCN3CC[C@@]4(c5ccc(OC)cc5N(C)[C@H]4[C@@](O)(C(=O)OC)[C@@H]1OC(=O)CCCN1CCN(Cc4ccc(F)cc4)CC1)[C@@H]32 [Compound 24] was tested, and the GI50 [1] was 4.07 µM, the GI50 [2] was 3.31 µM and the GI50 [3] was 1.74 µM. For the same compound, the GI50 [4] was 10.2 µM, the GI50 [5] was 10.2 µM and the GI50 [6] was 1.66 µM. The GI50 [7] was 13.2 µM, the GI50 [8] was 8.32 µM and the GI50 [9] was 8.51 µM. The GI50 [10] was 2.19 µM, the GI50 [11] was 13.5 µM and the GI50 [12] was 2.29 µM. For the same compound, the GI50 [13] was 5.5 µM, the GI50 [14] was 1.66 µM and the GI50 [15] was 2 µM. For the same compound, the GI50 [16] was 11.5 µM, the GI50 [17] was 5.37 µM and the GI50 [18] was 13.8 µM. It also gave a GI50 [19] of 11.8 µM, a GI50 [20] of 5.89 µM and a GI50 [21] of 2.24 µM. It also gave a GI50 [22] of 3.98 µM, a GI50 [23] of 2.82 µM and a GI50 ([24]; 60 cell, mean over all 60 cell lines) of 6.84 µM. The GI50 ([24]; mean over Breast Cancer panel) was 4.25 µM, the GI50 ([24]; mean over CNS Cancer panel) was 8.08 µM and the GI50 ([24]; mean over Colon Cancer panel) was 6.09 µM. It also gave a GI50 ([24]; mean over Leukemia panel) of 3.19 µM, a GI50 ([24]; mean over Melanoma panel) of 5.92 µM and a GI50 ([24]; mean over Non-small Cell Lung Cancer panel) of 9.83 µM. It also gave a GI50 ([24]; mean over Ovarian Cancer panel) of 10.1 µM, a GI50 ([24]; mean over Prostate Cancer panel) of 7.32 µM and a GI50 ([24]; mean over Renal Cancer panel) of 5.58 µM. It also gave an activity at 10 µM [25] of 4.82%, an activity at 10 µM [26] of 40.3% and an activity at 10 µM [27] of 50.2%. It also gave an activity at 10 µM [28] of 74.4%, an activity at 10 µM [29] of -62.4% and an activity at 10 µM [30] of 38.7%. For the same compound, the activity at 10 µM [31] was 34.7%, the activity at 10 µM [32] was 33% and the activity at 10 µM [33] was 81.2%. The activity at 10 µM [34] was 42%, the activity at 10 µM [35] was 70% and the activity at 10 µM [36] was 5.13%. It also gave an activity at 10 µM [37] of 20.7%, an activity at 10 µM [38] of 12.9% and an activity at 10 µM [39] of 51.5%. For the same compound, the activity at 10 µM [40] was 16.3% and the activity at 10 µM [41] was 28.8%.
